Legend:
TGF-β1 [1] = molecular target: T1, TGF-β1 (Homo sapiens, UniProt P01137); test: GAG-binding plate assay; conditions: wells coated with 5 μg/ml GAG
T1 construct: full length mature TGF-β1 is 112 amino acids in length
Description: GAGs are immobilized in each well and then challenged with TGF-β1 according to the manufacturer's instructions. Briefly, triplicate wells are first pre-coated with 5 μg/ml of heparin, HS^PM, HS16^+ve or HS16^−ve in standard assay buffer (SAB: 100 mM NaCl, 50 mM sodium acetate, 0.2% v/v Tween 20, pH 7.2), and then incubated overnight at room temperature. The plates are next washed carefully three times with SAB, blocked with 250 μl of blocking solution (0.4% w/v fish skin gelatine, Sigma-Aldrich, in SAB) and incubated for 1 h at 37° C. TGF-β1 was then dissolved in blocking solution at a concentration of 100, 200, or 400 ng/ml. The plates are washed three times with SAB and each dilution of protein (200 μl) is dispensed into triplicate wells and incubated for 2 h at 37° C., rinsed with SAB and 200 μl of 750 ng/ml monoclonal mouse anti-TGF-β1 antibody (MAB2401, R&D Systems) added in blocking solution. Plates are then incubated for 1 h at 37° C., washed with SAB, and 200 μl of 1 μg/ml polyclonal goat anti-mouse biotinylated antibody (ab6788, Abcam) added in blocking solution. Again, plates are incubated for 1 h at 37° C., washed with SAB, and 200 μl of 220 ng/ml ExtrAvidin AP (Sigma-Aldrich) is added in blocking solution, incubated for 30 min at 37° C., and then rinsed with SAB. Finally, 200 μl of development reagent (SigmaFAST p-Nitrophenyl phosphate, Sigma-Aldrich) is added, incubated at 37° C. for 40 min and read at 405 nm within 1 h.
To determine the ability of TGF-β1 to bind to heparin, we utilized positively-charged GAG-binding plates (Iduron) as a capture substrate. GAGs were immobilized in each well and then challenged with TGF-β1 according to the manufacturer's instructions. Briefly, triplicate wells were first pre-coated with 5 μg/ml of full length heparin, size-fractionated heparin (dp14, 16, 18, 20, 22 and 24) or selectively […] heparin prepared in standard assay buffer (SAB: 100 mM NaCl, 50 mM sodium acetate, 0.2% v/v Tween 20, pH 7.2), and then incubated overnight at room temperature. The plates were next washed carefully three times with SAB, blocked with 250 μl of blocking solution (0.4% w/v fish skin gelatine, Sigma-Aldrich, in SAB) and incubated for 1 h at 37° C. TGF-β1 was then dissolved in blocking solution at a concentration of 100, 200, or 400 ng/ml. The plates were washed three times with SAB and each dilution of protein (200 μl) was dispensed into triplicate wells and incubated for 2 h at 37° C., rinsed with SAB and 200 μl of 750 ng/ml monoclonal mouse anti-TGF-β1 antibody (MAB2401, R&D Systems) added in blocking solution. […] Finally, 200 μl of development reagent (SigmaFAST p-Nitrophenyl phosphate, Sigma-Aldrich) was added, incubated at 37° C. for 40 min and read at 405 nm within 1 h.

[2] = system: TGF-β1 signaling (pSMAD2, pSMAD3) in hMSCs; test: Western blotting of pSMAD2/pSMAD3 in hMSCs treated with TGF-β1 and GAG; assay type: cell-based, human; conditions: TGF-β1 1 ng/ml pre-incubated with 10 μg/ml GAG; 6 h
Description: Primary hMSCs (Lonza) were isolated from the bone marrow mononuclear cells of a young healthy adult human donor by plastic adherence and characterized as previously described (30,31). The adherent cells were maintained in a basal media consisting of DMEM-low glucose (1000 mg/l, DMEM-LG) supplemented with 10% fetal calf serum, 100 U/ml penicillin, 100 μg/ml streptomycin and 2 mM L-glutamine, and cultured under standard conditions at 37° C. and 5% CO2 in a humidified atmosphere. Media replacement was every three days. Cells were detached with 0.125% trypsin/Versene (pH 7.0) upon reaching 75-80% confluence, and re-plated at a density of 3,000 cells/cm^2 under the same culture conditions. All experiments were carried out with cells at passage 5.
Human MSCs were cultured in 6-well plates in basal media for 24 h at a density of 10,000 cells/cm^2. TGF-β1 treatments were then prepared at either 1 ng/ml or 5 ng/ml alone or in the presence of either 10 μg/ml or 40 μg/ml of full length heparin, or 1 ng/ml of TGF-β1 with 10 μg/ml size-fractionated or selectively desulfated heparin, HS^PM, HS16+ or HS16−, and incubated at room temperature for 10 min before being added to the cells. Latent TGF-β1 (LTGF-β1) treatments were similarly prepared at 3.3 ng/ml alone or with 10 μg/ml of the various GAGs described above. For inhibitor studies, the cells were pre-treated for 30 min with 10 μM SB431542 (Sigma-Aldrich) or DMSO before treatment with TGF-β1. […] Samples were then immunoblotted with antibodies against SMAD2/3 (#3102, Cell Signaling), phosphorylated SMAD2 (pSMAD2, #3108, Cell Signaling), phosphorylated SMAD3 (pSMAD3, #9520, Cell Signaling) and actin (MAB1501R, Millipore). Densitometry was carried out using Quantity One software (version 4.6.6, Bio-Rad).

TGF-β1 [3] = molecular target: T1, TGF-β1; test: SPR competitive binding: soluble GAG competes for TGF-β1 against heparin-coated chip; conditions: for ability to competitively inhibit TGF-β1 binding to immobilized heparin: 200 nM TGF-β1 pre-incubated with 5 or 10 μg GAG
Description: Biotinylated heparin was prepared based on the protocol reported by Hernaiz et al. (33). Briefly, 20 mg of heparin was filter-sterilized (0.22 μm) in 1 ml of water and incubated with 8.6 μmol of N-hydroxysuccinimide-biotin (NHS-biotin) (Pierce) in 20 μl of dimethyl sulfoxide (DMSO) for 2 h at 4° C. The biotinylated heparin was then extensively dialyzed (7000 MWCO) to remove unreacted biotin. Immobilization of the biotinylated heparin onto a streptavidin (SA) sensor chip (GE Healthcare) was carried out using the immobilization wizard on the Biacore T100 (GE Healthcare) with a targeted immobilization level of approximately 40 response units (RUs). HBS-EP running buffer (10 mM HEPES, 150 mM NaCl, 3.0 mM EDTA, 0.05% (v/v) Tween 20, pH 7.4) was used for the immobilization.
TGF-β1-heparin interactions were effected by preparing a series of TGF-β1 protein samples (50 to 800 nM final concentration) diluted in HBS-EP-0.1 running buffer (0.1% instead of 0.05% (v/v) Tween 20). […] The sample solutions were then injected over the heparin-coated chip at a flow rate of 30 μl/min for 120 s, with HBS-EP-0.1 being subsequently passed over the chip for a further 1200 s to monitor TGF-β1 dissociation. After dissociation, the sensor surface on the chip was regenerated by 2 washes of 2 M NaCl injected at 30 μl/min for 60 s. The response was measured as a function of time (sensogram) at 25° C. The maximum binding response for each condition was normalized to the response obtained from TGF-β1 alone.

[4] = system: chondrogenic differentiation of hMSCs; test: qPCR of day 3 chondrogenic micromass pellets (Example 1); assay type: cell-based, human; conditions: 3-day old pellets; SB431542 10 μM vs DMSO
Description: Chondrogenic differentiation was carried out using a modified micromass culture system as described by Zhang et al. (32). Briefly, passage 4 hMSCs were harvested and resuspended in chemically defined chondrogenic media (PT-3003, Lonza) at 2×10^7 cells/ml. Droplets of 12.5 μl were then seeded into the middle of each well in a 24-well plate and left to adhere at 37° C. for 2 h, after which, 500 μl of chondrogenic media supplemented with either 10 ng/ml of TGF-β1 (100-21C, PeproTech) alone (Media) or TGF-β1 with 10 μg/ml of heparin (Sigma-Aldrich) (Media+Hep) was added to each well. The cell droplets coalesced into spherical masses after 24 h and the micromasses harvested on day 3. Human MSCs were cultured in 6-well plates in basal media for 24 h at a density of 10,000 cells/cm^2. TGF-β1 treatments were then prepared at either 1 ng/ml or 5 ng/ml alone or in the presence of either 10 μg/ml or 40 μg/ml of full length heparin, or 1 ng/ml of TGF-β1 with 10 μg/ml size-fractionated or selectively desulfated heparin, HS^PM, HS16+ or HS16−, and incubated at room temperature for 10 min before being added to the cells. Latent TGF-β1 (LTGF-β1) treatments were similarly prepared at 3.3 ng/ml alone or with 10 μg/ml of the various GAGs described above. For inhibitor studies, the cells were pre-treated for 30 min with 10 μM SB431542 (Sigma-Aldrich) or DMSO before treatment with TGF-β1. The cells were then subjected to the various TGF-β1 treatments for 1, 6 or 24 h and lysed in 2× Laemmli buffer, before being resolved on a 4-12% SDS-PAGE gel. Samples were then immunoblotted with antibodies against SMAD2/3 (#3102, Cell Signaling), phosphorylated SMAD2 (pSMAD2, #3108, Cell Signaling), phosphorylated SMAD3 (pSMAD3, #9520, Cell Signaling) and actin (MAB1501R, Millipore). Densitometry was carried out using Quantity One software (version 4.6.6, Bio-Rad). Total RNA was isolated from chondrogenic micromass pellets using TRIZOL reagent (Invitrogen, Life Technologies) according to the manufacturer's protocol. Reverse transcription was carried out on 1 μg RNA using the SuperScript® VILO™ cDNA Synthesis Kit (Invitrogen, Life Technologies) following the manufacturer's instructions, with the incubation at 42° C. being carried out for 2 h instead of 1 h. Each qPCR contained 40 ng cDNA, 1 μl TaqMan® primer-probe mix per gene, and 10 μl Taqman® Fast Universal PCR Master Mix (Applied Biosystems, Life Technologies) in a final volume of 20 μl. Thermal cycling conditions were 95° C. for 20 s, followed by 45 cycles of 95° C. for 3 s and 60° C. for 30 s. Each qPCR was run in duplicate and gene expression was normalized to HPRT1 expression to obtain the ΔCt value. […] Relative expression levels for each primer set were expressed as fold changes by the 2^−ΔΔCt method (36). […]

T1 sequence (P01137 279-390 limits assumed): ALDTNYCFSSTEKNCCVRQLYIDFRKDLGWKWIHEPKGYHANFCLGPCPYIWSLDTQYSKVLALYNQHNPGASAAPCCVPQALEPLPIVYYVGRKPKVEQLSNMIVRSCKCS

| Compound | TGF-β1 binding to immobilized GAG (TGF-β1 [1]; TGF-β1 100, 200 or 400 ng/ml) | pSMAD2 and pSMAD3 levels [2] | ability to competitively inhibit TGF-β1 binding to immobilized heparin (TGF-β1 [3]) | COMP gene expression [4] | SOX9 gene expression [4] | reduction of TGF-β1 binding compared to fully sulfated, full-length heparin (TGF-β1 [1]) | loss of TGF-β1-binding ability (TGF-β1 [3]; 200 nM TGF-β1 with 5 or 10 μg GAG, relative to heparin) |
| --- | --- | --- | --- | --- | --- | --- | --- |
| N-desulfated heparin | essentially abolished | did not lead to an increase in pSMAD levels | abrogated | – | – | – | – |
| NC(=O)c1ccc(-c2nc(-c3ccc4c(c3)OCO4)c(-c3ccccn3)[nH]2)cc1 [SB431542] | – | – | – | reduction | reduction | – | – |
| 6-O-desulfated heparin | – | stabilization of pSMAD levels | – | – | – | approximately 80% | approximately 40% |
| 2-O-desulfated heparin | – | increase to levels beyond those seen in heparin-treated cells | minimal effect | – | – | about 60% | – |

— patent US10596296B2, “Heparan sulphates” (Agency for Science, Technology and Research, priority 2014, dated 2020)
